Converted amounts (≈) assume the structure as drawn. Where two headings read alike, the source gives them in different places.
Key:
[1] = Temperature and pH lability (GC-MS of ethanol eluate); assay type: physicochemical; conditions: high pH (above pH 7)
Procedure: As shown at a standard GC/MS injection temperature of 250° C., N-methyl N-nitroso isobutyramide is not detected as it most likely has broken down into other compounds. Therefore, this compound has never been previously identified.

[2] = tested on: Staphylococcus aureus (MRSA) (ATCC 33591); test: MIC and MBC of Compound 1 and analogs, macrodilution
[3] = tested on: Pseudomonas aeruginosa PAO1, Enterococcus faecalis V583 and Staphylococcus aureus Mu50 biofilm; test: Lubbock chronic wound biofilm model: biofilm formation and dry weight; conditions: biofilm at 24 hours
[4] = tested on: E. coli 0157:H7 (ATCC 43894); test: MIC and MBC by Macrodilution Broth Method; assay type: cell-based; conditions: ATCC43894, Escherichia coli 0157:H7
[5] = tested on: Pseudomonas aeruginosa PAO1; test: Lubbock biofilm model: relative ratio of bacterium by qPCR
[6] = tested on: Listeria monocytogenes (ATCC 13932); test: MIC and MBC by Macrodilution Broth Method; assay type: cell-based
[7] = tested on: Streptococcus pyogenes (ATCC 10096); test: MIC and MBC by Macrodilution Broth Method; assay type: cell-based; conditions: ATCC10096, Streptococcus pyrogenes
[8] = tested on: Corynebacterium renale (ATCC 10848); test: MIC and MBC by Macrodilution Broth Method; assay type: cell-based; conditions: ATCC10848, Corynebacterum renale
[9] = tested on: Clostridium sporogenes (ATCC 11437); test: MIC and MBC by Macrodilution Broth Method; assay type: cell-based; conditions: ATCC11437, read-out: MIC concentration (ppm)
[10] = tested on: Proteus mirabilis (ATCC 3559); test: MIC and MBC by Macrodilution Broth Method; assay type: cell-based
[11] = tested on: Bacillus cereus (ATCC 10702); test: MIC and MBC by Macrodilution Broth Method; assay type: cell-based
[12] = tested on: Klebsiella pneumoniae (ATCC 35657); test: MIC and MBC by Macrodilution Broth Method; assay type: cell-based
[13] = tested on: Methicillin Resistant Staphylococcus aureus (MRSA) (ATCC 33591); test: MIC and MBC by Macrodilution Broth Method; assay type: cell-based
[14] = tested on: Enterococcus faecalis V583; test: Lubbock biofilm model: relative ratio of bacterium by qPCR
[15] = tested on: Legionella pneumophila (ATCC 33152); test: microbe, parasite or virus in culture; assay type: cell-based
[16] = tested on: Shigella dysenteriae (ATCC 12021); test: MIC and MBC by Macrodilution Broth Method; assay type: cell-based
[17] = tested on: Enterobacter cloacae (ATCC 13047); test: MIC and MBC by Macrodilution Broth Method; assay type: cell-based
[18] = tested on: Penicillium expansum; test: Fungicidal activity, fumigation of Penicillium expansum spore plates in sealed 6 L containers; assay type: cell-based; conditions: 24 h exposure, further 48 h incubation; for MIC: Penicillium expansum, 24 h
Procedure: Experiments were conducted to determine the fungicidal activity of several compounds of the invention using Penicillium expansum as the test organism.
Plates of potato dextrose agar were streaked with a standard culture of Penicillium expansum spores (0.1 ml of a 2×10^5 cfu/ml) and placed in sealed plastic containers (nominal volume 6 liters). The containers (Rubbermaid) were fitted with a small fan (Radio Shack 12VDC) in the lids to ensure good distribution of the test compounds. The plates were exposed to different volumes (2.5 μl, 5 μl, 10 μl, 20 μl, 40 μl, 80 μl, or 120 μl) of standard solutions (1.0 to 4.0 mg/ml) of tested compounds in ethanol, under ambient conditions. After exposing for 24 h, the plates were removed and incubated for a further 48 h, at ambient temperature, and then monitored for growth of the test organism by visual observation.
The following tables provide summary results of three separate studies to determine the minimum amounts of the compounds needed to produce 100% inhibition of growth of the test organism. Results are expressed as minimal volumes (μl/6 L) and amounts (μg/L) required to produce 100% inhibition.

[19] = tested on: Staphylococcus aureus Mu50; test: Lubbock biofilm model: relative ratio of bacterium by qPCR
[20] = 37° C., 16 to 20 hours, read-out: MIC concentration (ppm)
[21] = read-out: MBC concentration (ppm)
[22] = Experiment #1, read-out: Amount for 100% inhibition (μg compound/L air)
[23] = Experiment #2, read-out: Amount for 100% inhibition (μg compound/L air)
[24] = Experiment #3, read-out: Amount for 100% inhibition (μg compound/L air)
[25] = Experiment #4, read-out: Amount for 100% inhibition (μg compound/L air)
[26] = Experiment #6, read-out: Amount for 100% inhibition (μg compound/L air)
[27] = Experiment #5, read-out: Amount for 100% inhibition (μg compound/L air)

Question: Which results are given for `CC(C)C(=O)N(C)N=O` [Compound 1, N-methyl N-nitrosoisobutyramide]?
Answer: stability to pH [1]: unstable; MIC ([2]; 19 h): 6.25 µg/mL; MBC ([2]; 25 h): 12.5 µg/mL; dry weight mg ± SD ([3]; dilution 1:10): 21.7 ± 3.2 mg; dry weight mg ± SD ([3]; dilution 1:100): 59 ± 4.4 mg; dry weight mg ± SD ([3]; dilution 1:1000): 63 ± 5.3 mg; dry weight mg ± SD ([3]; dilution 1:10000): 79.7 ± 5.5 mg; MIC [4, 20]: 12.5 µg/mL (≈ 96 µM); MBC [4, 21]: 12.5 µg/mL (≈ 96 µM); P. aeruginosa relative ratio in biofilm ([5]; dilution 1:10, 24 hours): 34.3% ± 1.2%; P. aeruginosa relative ratio in biofilm ([5]; dilution 1:100, 24 hours): 46.7% ± 8.0%; P. aeruginosa relative ratio in biofilm ([5]; dilution 1:1000, 24 hours): 50.5% ± 8.4%; P. aeruginosa relative ratio in biofilm ([5]; dilution 1:10000, 24 hours): 20.3% ± 0.9%; MIC ([6]; ATCC13932, 37° C., 16 to 20 hours, read-out: MIC concentration (ppm)): 3.13 µg/mL (≈ 24 µM); MBC ([6]; ATCC13932, read-out: MBC concentration (ppm)): 12.5 µg/mL (≈ 96 µM); MIC [7, 20]: 6.25 µg/mL (≈ 48 µM); MBC [7, 21]: 6.25 µg/mL (≈ 48 µM); MIC [8, 20]: 6.25 µg/mL (≈ 48 µM); MBC [8, 21]: 12.5 µg/mL (≈ 96 µM); MIC [9]: 25 µg/mL (≈ 192 µM); MIC ([10]; ATCC3559, 37° C., 16 to 20 hours, read-out: MIC concentration (ppm)): 6.25 µg/mL (≈ 48 µM); MBC ([10]; ATCC3559, read-out: MBC concentration (ppm)): 12.5 µg/mL (≈ 96 µM); MIC ([11]; ATCC10702, 37° C., 16 to 20 hours, read-out: MIC concentration (ppm)): 6.25 µg/mL (≈ 48 µM); MBC ([11]; ATCC10702, read-out: MBC concentration (ppm)): 12.5 µg/mL (≈ 96 µM); MIC ([12]; ATCC35657, 37° C., 16 to 20 hours, read-out: MIC concentration (ppm)): 12.5 µg/mL (≈ 96 µM); MBC ([12]; ATCC35657, read-out: MBC concentration (ppm)): 12.5 µg/mL (≈ 96 µM); MBC [13, 21]: 12.5 µg/mL (≈ 96 µM); MIC ([13]; read-out: MIC concentration (ppm)): 6.25 µg/mL (≈ 48 µM); E. faecalis relative ratio in biofilm ([14]; dilution 1:10, 24 hours): 65.5% ± 0.6%; E. faecalis relative ratio in biofilm ([14]; dilution 1:100, 24 hours): 39.5% ± 1.0%; E. faecalis relative ratio in biofilm ([14]; dilution 1:1000, 24 hours): 34.4% ± 0.2%; E. faecalis relative ratio in biofilm ([14]; dilution 1:10000, 24 hours): 32.6% ± 0.3%; MBC ([15]; ATCC33152, read-out: MBC concentration (ppm)): 25 µg/mL (≈ 192 µM); MIC ([15]; ATCC33152, read-out: MIC concentration (ppm)): 6.25 µg/mL (≈ 48 µM); MBC ([16]; ATCC12021, read-out: MBC concentration (ppm)): 12.5 µg/mL (≈ 96 µM); MIC ([16]; ATCC12021, read-out: MIC concentration (ppm)): 6.25 µg/mL (≈ 48 µM); MIC ([17]; ATCC13047, 37° C., 16 to 20 hours, read-out: MIC concentration (ppm)): 12.5 µg/mL (≈ 96 µM); MBC ([17]; ATCC13047, read-out: MBC concentration (ppm)): 12.5 µg/mL (≈ 96 µM); MIC [18, 22]: 0.0045 µg/mL (≈ 0.0346 µM); MIC [18, 23]: 0.0043 µg/mL (≈ 0.033 µM); MIC [18, 24]: 0.004 µg/mL (≈ 0.0307 µM); MIC [18, 25]: 0.0084 µg/mL (≈ 0.0645 µM); S. aureus relative ratio in biofilm ([19]; dilution 1:10, 24 hours): 0.27% ± 0.0%; S. aureus relative ratio in biofilm ([19]; dilution 1:100, 24 hours): 13.9% ± 0.2%; S. aureus relative ratio in biofilm ([19]; dilution 1:1000, 24 hours): 15.2% ± 1.6%; S. aureus relative ratio in biofilm ([19]; dilution 1:10000, 24 hours): 47.2% ± 1.2%

Question: With `CCCCCC(=O)N(C)N=O` [Compound 2, N-methyl-N-nitrosohexanamide] as the compound, how does the MIC [18, 25] read?
Answer: 0.0043 µg/mL (≈ 0.0272 µM)

Question: For `CN(N=O)C(=O)CC1CC1` [Compound 3, 2-cyclopropyl-N-methyl-N-nitrosoacetamide], which MIC [18, 26] is on record?
Answer: 0.005 µg/mL (≈ 0.0352 µM)

Question: With `C=CC(=O)N(C)N=O` [Compound 4, N-methyl-N-nitrosoacrylamide] as the compound, how does the MIC [18, 27] read?
Answer: 0.0011 µg/mL (≈ 0.00964 µM)

Question: With `CN(N=O)C(=O)C1CCC1` [Compound 5, N-methyl-N-nitrosocyclobutanecarboxamide] as the compound, how does the MIC [18, 27] read?
Answer: 0.0012 µg/mL (≈ 0.00844 µM)

Question: For `COCC(=O)N(C)N=O` [Compound 6, 2-methoxy-N-methyl-N-nitrosoacetamide], which MIC [18, 26] is on record?
Answer: 0.0022 µg/mL (≈ 0.0167 µM)

Question: With `CN(N=O)C(=O)C1CC1` [Compound 7, N-methyl-N-nitrosocyclopropanecarboxamide] as the compound, how does the MIC [18, 22] read?
Answer: 0.0101 µg/mL (≈ 0.0788 µM)

Question: And the MIC [18, 23]?
Answer: 0.01 µg/mL (≈ 0.078 µM)

Question: What about the MIC [18, 24] of the same compound?
Answer: 0.0082 µg/mL (≈ 0.064 µM)

Question: With `C/C=C/C(=O)N(C)N=O` [Compound 8, (2E)-N-methyl-N-nitrosobut-2-enamide] as the compound, how does the MIC [18, 27] read?
Answer: 0.0075 µg/mL (≈ 0.0585 µM)

Question: For `CCCCCCC(=O)N(C)N=O` [Compound 9, N-methyl-N-nitrosoheptanamide], which MIC [18, 25] is on record?
Answer: 0.0075 µg/mL (≈ 0.0435 µM)

Question: For `CC(C)C(=O)N(C)N=O` [Compound 10, N-methyl-N-nitrosisopropanamide], which “Amount for 100% inhibition (μg compound/L air)” value ([18]; Experiment #4) is on record?
Answer: >14.4 μg compound/L air

Question: Which MIC [18, 26] does the source give for `CCN(N=O)C(=O)C(C)C` [Compound 11, N-ethyl-N-nitrosoisobutyramide] here?
Answer: > 0.0147 µg/mL

Question: Which MIC ([18]; read-out: Amount for 100% inhibition (μg compound/L air), Experiment #1) does the source give for `CCCN(N=O)C(C)=O` [Compound 12, N-nitroso-N-propylacetamide] here?
Answer: 0.0252 µg/mL (≈ 0.194 µM)

Question: With `CCCC(=O)N(C)N=O` [Compound 13, N-methyl-N-nitrosobutyramide] as the compound, how does the MIC [18, 22] read?
Answer: 0.0092 µg/mL (≈ 0.0707 µM)

Question: What about the MIC [18, 23] of the same compound?
Answer: 0.0071 µg/mL (≈ 0.0546 µM)

Question: And the MIC [18, 24]?
Answer: 0.0075 µg/mL (≈ 0.0576 µM)
